The source of these data is ChEMBL document CHEMBL3301361, “Experimental in vitro DMPK and physicochemical data on a set of publicly disclosed compounds”.

The logD is the decadic logarithm of the distribution of all forms, ionised or not, between an organic phase and buffer at a given pH. For orientation: solubility (thermodynamic) means the concentration in solution at equilibrium with solid.

Values after ≈ are worked out from the molar mass of the structure shown.

A short description of series [1]: physchem. The following applies: octan-1-ol/water.
Series [2] in a line: physchem. The following applies: pH 7.4 buffer.

`CCN(c1ccnc(Nc2cc(N3CCOCC3)cc(N3CCOCC3)c2)n1)c1cc(CO)ccc1C` displayed a logD in the series “physchem [1]” (pH 7.4, LogD7.4) of 3.8. The thermodynamic solubility in the series “physchem [2]” stood at 72.4 µM (≈ 36.5 µg/mL).

Take `COc1cc2ncnc(Nc3ccc(F)c(Cl)c3)c2cc1OCCN1CCN(C)CC1`: the logD in the series “physchem [1]” (pH 7.4, LogD7.4) worked out at 3.3. In addition, the thermodynamic solubility in “physchem [2]” stood at 64.6 µM (≈ 28.8 µg/mL).

As for `NC(=O)c1sc(-c2ccccc2)cc1N`, the logD in “physchem [1]” (pH 7.4, LogD7.4) is 2.33. The compound further displayed a thermodynamic solubility in “physchem [2]” of 38.9 µM (≈ 8.49 µg/mL).

With `CC1(COc2cc(-c3cccc4c(=O)cc(N5CCOCC5)oc34)ccc2NC(=O)CN2CCOCC2)COC1`, the pH-dependent lipophilicity (logD) in the series “physchem [1]” (pH 7.4, LogD7.4) amounted to 2.2. In addition, the thermodynamic solubility in the series “physchem [2]” worked out at 36.3 µM (≈ 20 µg/mL).

For `COc1ccc(C(=O)Nc2cccc(NC(=O)c3cccc(N(C)C)c3)c2)cc1OC`, in “physchem [1]” (pH 7.4, LogD7.4), the log distribution coefficient (logD) amounted to 3.67. The same compound came in with a solubility (thermodynamic) in the series “physchem [2]” of 1.4 µM (≈ 0.587 µg/mL).

The compound `Cc1nc(C)c(-c2ccc([C@H]3CC[C@H](CCC(=O)O)CC3)cc2)nc1C(N)=O` had a pH-dependent lipophilicity (logD) in “physchem [1]” (pH 7.4, LogD7.4) of 1.6. In “physchem [2]”, this compound had a thermodynamic solubility of 200 µM (≈ 76.1 µg/mL).

As for `O=C(N[C@@H](Cc1ccc(OCCNc2nc3ccccc3[nH]2)cc1)C(=O)O)c1c(Cl)cccc1Cl`, in “physchem [1]” (pH 7.4, LogD7.4), the logD was 0.6. The compound further had a solubility (thermodynamic) in the series “physchem [2]” of 324 µM (≈ 166 µg/mL).

Consider `O=C(Nc1nnc(C(=O)Nc2ccc(N3CCOCC3)cc2)o1)c1ccccc1`, for which, in the series “physchem [1]” (pH 7.4, LogD7.4), the logD is 1.02. The compound further showed a solubility (thermodynamic) in the series “physchem [2]” of 105 µM (≈ 41.2 µg/mL).

In the case of `O=C1CN(C(=O)c2ccco2)c2ccccc2N1`, in the series “physchem [1]” (pH 7.4, LogD7.4), the logD turned out to be 1.21. The solubility (thermodynamic) in “physchem [2]” came to 269 µM (≈ 65.2 µg/mL).

In “physchem [1]” (pH 7.4, LogD7.4), `c1ccc(-c2n[nH]cc2-c2ccnc3ccccc23)nc1` came in with a logD of 2.57. For the same compound, in the series “physchem [2]”, the solubility (thermodynamic) amounted to 26.3 µM (≈ 7.16 µg/mL).

`Cc1cc(S(=O)(=O)Nc2nc(Nc3ccc(Cl)cc3)n[nH]2)c(S)cc1Cl` had a logD in “physchem [1]” (pH 7.4, LogD7.4) of 2.09. The compound further came in with a thermodynamic solubility in “physchem [2]” of 87.1 µM (≈ 37.5 µg/mL).

Regarding `O=C(O)C[C@@H]1c2ccccc2C[C@H]1NC(=O)c1cc2sc(Cl)c(Cl)c2[nH]1`, the logD in “physchem [1]” (pH 7.4, LogD7.4) is 2.53. In the series “physchem [2]”, the solubility (thermodynamic) worked out at 1510 µM (≈ 620 µg/mL).

Compound `CCCN(CCO)CCCOc1ccc2c(Nc3cc(CC(=O)Nc4cccc(F)c4F)[nH]n3)ncnc2c1` displayed a log distribution coefficient (logD) in “physchem [1]” (pH 7.4, LogD7.4) of 2.19. Moreover, the thermodynamic solubility in the series “physchem [2]” came to 5.8 µM (≈ 3.13 µg/mL).

Compound `CNC(=O)Nc1nc2ccc(-c3cncc(S(=O)(=O)NC(C)(C)C)c3)cn2n1` showed a logD in the series “physchem [1]” (pH 7.4, LogD7.4) of 1.58. In the series “physchem [2]”, this compound returned a thermodynamic solubility of 87.1 µM (≈ 35.1 µg/mL).

The compound `CCn1cc(NC(=O)Cc2ccc(Oc3ccnc4cc(OC)c(OC)cc34)cc2OC)cn1` yielded a logD in the series “physchem [1]” (pH 7.4, LogD7.4) of 3.42. In the series “physchem [2]”, this compound yielded a solubility (thermodynamic) of 22.9 µM (≈ 10.6 µg/mL).

`CCCSc1nc(NC)ccc1C(=O)N[C@H]1C2CC3CC1C[C@](O)(C3)C2` registered a logD in “physchem [1]” (pH 7.4, LogD7.4) of 3.27. The same compound yielded a thermodynamic solubility in “physchem [2]” of 46.8 µM (≈ 17.6 µg/mL).

`O=C(c1ccc(F)cc1)C1CCN(C(=O)c2ccc(F)cc2)CC1` registered a logD in “physchem [1]” (pH 7.4, LogD7.4) of 2.9. In the series “physchem [2]”, this compound gave a solubility (thermodynamic) of 30.9 µM (≈ 10.2 µg/mL).

As to `NC(=O)c1c(OCc2c(F)cc(Br)cc2F)nsc1NC(=O)NCCCCN1CCCC1` [OSI-632], the log distribution coefficient (logD) in the series “physchem [1]” (pH 7.4, LogD7.4) turned out to be 2.5. The same compound yielded a solubility (thermodynamic) in “physchem [2]” of 77.6 µM (≈ 41.3 µg/mL).

Turning to `Cc1ncc(-c2ccc([C@H]3CC[C@H](CC(=O)O)CC3)cc2)nc1C(N)=O`, in the series “physchem [1]” (pH 7.4, LogD7.4), the log distribution coefficient (logD) is 1. For the same compound, in the series “physchem [2]”, the thermodynamic solubility stood at 372 µM (≈ 131 µg/mL).

`CC(=O)Nc1nc(-c2cccs2)cs1`: in “physchem [1]” (pH 7.4), the logD was found to be 2.77. In “physchem [2]”, the thermodynamic solubility came out at 100 µM (≈ 22.4 µg/mL).

Take `CC(Nc1ncnc2ccccc12)c1ccccc1` (stereo unspecified): the pH-dependent lipophilicity (logD) in “physchem [1]” (pH 7.4, LogD7.4) turned out to be 3.4. Also, the thermodynamic solubility in “physchem [2]” is 123 µM (≈ 30.7 µg/mL).

Consider `O=c1cc(N2CCOCC2)nc2c3ccccc3ccn12`, for which the pH-dependent lipophilicity (logD) in “physchem [1]” (pH 7.4, LogD7.4) came out at 2.78. This compound also showed a thermodynamic solubility in the series “physchem [2]” of 44.7 µM (≈ 12.6 µg/mL).

With `COc1cc(Nc2cc(Oc3cccnc3)ccn2)cc(OC)c1OC`, in “physchem [1]” (pH 7.4, LogD7.4), the logD was determined as 2.66. In the series “physchem [2]”, this compound had a solubility (thermodynamic) of 93.3 µM (≈ 33 µg/mL).

`NS(=O)(=O)c1cccc(Nc2nccc(Nc3cccc4[nH]ncc34)n2)c1` returned a logD in the series “physchem [1]” (pH 7.4, LogD7.4) of 2.6. This compound came in with a thermodynamic solubility in “physchem [2]” of 51.3 µM (≈ 19.6 µg/mL).

In the series “physchem [1]” (pH 7.4, LogD7.4), `O=C(Cc1cc(Nc2ncnc3cc(OCCCN4CCC[C@@H]4CO)ccc23)n[nH]1)Nc1cccc(F)c1F` returned a log distribution coefficient (logD) of 2.06. This compound also had a thermodynamic solubility in the series “physchem [2]” of 141 µM (≈ 76 µg/mL).

For the compound `COc1cc2ncnc(Nc3ccc(F)c(Cl)c3)c2cc1OC`, the log distribution coefficient (logD) in the series “physchem [1]” (pH 7.4, LogD7.4) worked out at 3.67. This compound returned a solubility (thermodynamic) in “physchem [2]” of 7.2 µM (≈ 2.4 µg/mL).

`COCCCNS(=O)(=O)c1ccc(Nc2nccc(-c3cnc4ccccn34)n2)cc1` came in with a logD in “physchem [1]” (pH 7.4, LogD7.4) of 3.41. The solubility (thermodynamic) in the series “physchem [2]” was 2.4 µM (≈ 1.05 µg/mL).

`O=C(c1ccc(F)cc1)C1CCN(C(=O)NCc2ccccc2)CC1`: the logD in the series “physchem [1]” (pH 7.4, LogD7.4) amounted to 3.15. In addition, the solubility (thermodynamic) in the series “physchem [2]” stood at 10 µM (≈ 3.4 µg/mL).

For `Cn1sc(NCc2ccccc2)nc1=O`, the log distribution coefficient (logD) in the series “physchem [1]” (pH 7.4, LogD7.4) turned out to be 1.2. This compound gave a thermodynamic solubility in “physchem [2]” of 1510 µM (≈ 335 µg/mL).

Regarding `C[C@@H](Oc1cccc2ncnc(Nc3ccc4c(cnn4Cc4ccccn4)c3)c12)C(=O)N(C)C`, in the series “physchem [1]” (pH 7.4, LogD7.4), the log distribution coefficient (logD) is 2.89. In addition, the solubility (thermodynamic) in “physchem [2]” turned out to be 295 µM (≈ 138 µg/mL).

`CCN(CC)C(=O)c1ccc2[nH]c(-c3cc(C)cc(C)c3)c(CCNCCCCc3ccncc3)c2c1`: the logD in “physchem [1]” (pH 7.4, LogD7.4) was 3.3. The solubility (thermodynamic) in “physchem [2]” was 871 µM (≈ 433 µg/mL).

For `COc1ccc(-c2cc3c(N[C@H]4CCCNC4)ncc(C(N)=O)c3s2)cc1`, the logD in “physchem [1]” (pH 7.4, LogD7.4) was 1.82. In the series “physchem [2]”, the solubility (thermodynamic) was 1050 µM (≈ 401 µg/mL).

`Cc1cccc(-c2nn3c(c2-c2ccnc4ccc(C(N)=O)cc24)CCC3)n1` [GALUNISERTIB] yielded a log distribution coefficient (logD) in “physchem [1]” (pH 7.4, LogD7.4) of 1.71. For the same compound, the thermodynamic solubility in the series “physchem [2]” was 182 µM (≈ 67.2 µg/mL).
